In patent US20160367497A1, “METHODS AND COMPOSITIONS FOR TREATING NEUROPATHIES” (Washington University, priority 2007, published 2016):

How the values were obtained:
[1] = system: DRG neuronal explant cultures; test: in vitro Wallerian degeneration assay, DRG explant neurite transection; format: cell-based, mouse
Experimental: To identify the mechanism of delayed axonal degeneration mediated by the Wlds protein, we employed an in-vitro Wallerian degeneration model. Primary DRG explant neurons were infected with lentivirus expressing the appropriate proteins, and axons were injured by either removal of the neuronal cell body (transection) or growth in vincristine (toxic).
Mouse DRG explants from E12.5 embryos were cultured in the presence of 1 nM nerve growth factor. Non-neuronal cells were removed from the cultures by adding 5-fluorouracil to the culture medium. Transection of neurites was performed at 10-20 DIV using an 18-gauge needle to remove the neuronal cell bodies. Incubation with β-nicotinamide adenine dinucleotide (Sigma) or Sirtinol (Calbiochem) was performed using conditions indicated in the text or figures.
Quantitative analysis of axonal degeneration was performed as previously described (Zhai, et al., Neuron 39:217-25, 2003). Briefly, the cultures were examined using phase contrast microscopy at the indicated times. Axons with a fragmented, non-refractile appearance were designated as “degenerated.” At each time point, at least 200 singly distinguishable axons were blindly scored from several randomly taken images of each culture. Each condition was tested in triplicate explants in each experiment. Results were obtained from 2-4 independent experiments for each condition. Statistical analysis was performed by Student's T test. For calculations of neurite-covered area, digitally captured images from quadruplicate samples of two independent experiments were analyzed using analysis 3.1 software (Soft Imaging System, Lakewood, Colo.).
Cell culture, in vitro axotomy, and quantification of axonal degeneration. Mouse DRG explants from E12.5 embryos were cultured in the DMEM containing 10% FCS and 1 nM nerve growth factor. Non-neuronal cells were removed from the cultures by adding 5-fluorouracil to the culture media. Transection of neurites was performed at 14-21 DIV using an 18-gauge needle to remove the neuronal cell bodies. Lentiviral expression vectors were generated. Lentiviral infection was performed 3-7 days prior to axonal transection for 24 hr. Quantitative analysis of neurite degeneration was performed.

AMPK = AMPK and ACC phosphorylation in DRG sensory neurons; format: cell-based, mouse; conditions: for effect on resveratrol-induced AMPK phosphorylation: DRG neurons, resveratrol 10 μM, 2 h
Source text: (A) Embryonic DRG neurons from Lkb1 flox/flox mice were infected with lentivirus expressing Cre recombinase (FCIV-Cre) or GFP only (FUGW control). Lentiviral infection was monitored by GFP fluorescence (A). […] Lkb1 flox/flox DRG neurons were infected with FUGW or FCIV-Cre and treated as indicated. AMPK or ACC was immunoprecipitated from neuronal lysates and western blots were probed with the respective phospho-specific antibodies. […] No inhibition of AMPK or ACC phosphorylation was observed by treatment with SIRT1 or CaMKKβ inhibitors. Lysate from AICAR treated DRG neurons was included as a positive control. (E, F) Embryonic DRG neurons were cultured from wild type and SIRT1-deficient littermates derived from SIRT1 heterozygous matings. […] Levels of total AMPK and ACC are shown in the bottom panels of C, D, E and F. Densitometric analysis of changes in levels of phospho AMPK (G) and phospho ACC (H) in SIRT1+/+ and SIRT1−/− DRG neurons in presence and absence of resveratrol is shown. Note: Resv, resveratrol.
Cell culture and Reagents. Neuro2 cells obtained from ATCC were grown in MEM with 1.5 g/L sodium bicarbonate, 0.1 mM nonessential amino acids, 0.1 mM sodium pyruvate, 2 mM L-glutamine with 10% FCS. For differentiation, cells were switched to serum-starvation medium (containing 0.2% FCS). For neurite outgrowth measurements, experiments were done in quadruplicate and 100 neurites per well were randomly measured using the Metamorph software. Dorsal root ganglia sensory and cortical neurons were established from E13.5 mouse embryos, maintained in neurobasal medium supplemented with B27 (and NGF for DRG neurons) and infected with lentiviruses as described (Araki et al., 2004, Science 305:1010-1013; Hawley et al., 2005, Cell Metab 2:21-23). Resveratrol was a gift from Sirtris Pharmaceuticals (Cambridge Mass.) and AICAR was obtained from Toronto Research (North York, Canada). Splitomycin and Compound C were purchased from Biomol (Plymouth Meeting, Pa.) and Calbiochem (San Diego, Calif.). Sirtinol and nicotinamide were purchased from Sigma (Saint Louis, Mo.)
Plasmids and viruses. The dominant negative (dnAMPK) and constitutively active (caAMPK) plasmids were gifts from Russell Jones (University of Pennsylvania, Philadelphia Pa.), and pCXN-Cre was a gift of Inder Verma (Salk Institute, San Diego, Calif.). All constructs were subcloned into the lentiviral shuttle vector FCIV and verified by nucleotide sequence analysis. Viruses were prepared as previously described (Araki et al., 2004, Science 305:1010-1013). Protein and mRNA analysis. Immunoprecipitations and western blot analysis were performed by standard methods using antibodies directed against total AMPK, phosphorylated AMPK, total ACC or phosphorylated ACC that were obtained from Cell Signaling Technology (Beverley, Mass.). The phospho-AMPK antibody detects endogenous AMPK α1 and α2 when phosphorylated at threonine 172. The LKB1 antibody was purchased from Upstate (Lake Placid, N.Y.). Quantitative RT-PCR analysis was performed using Sybr-Green methodology on a model 7700 instrument (Applied Biosystems) as previously described (Araki et al., 2004, Science 305:1010-1013). Primer sequences were those used in previous studies (Motoshima, et al., 2006, J Physiol 574:63-71).
Resveratrol activation of AMPK in Neuro2a cells along with the crucial role of AMPK in promoting neurite outgrowth in these cells encouraged us to examine this pathway in primary neurons. […]

SMILES | effect on resveratrol-induced AMPK phosphorylation (AMPK) | further results
NC(=O)c1cccnc1 [Nam, nicotinamide] | none of the SIRT inhibitors | neurite protection after transection ([1]; 1 mM applied for 24 hours before neurite transection): had no effect
O=C(O)c1ccc2c3c1cccc3c(=O)n1c3ccccc3nc21 [STO 609] | had no effect | 
CC(NC(=O)c1ccccc1/N=C/c1c(O)ccc2ccccc12)c1ccccc1 (centres unmarked) [Sirtinol] | none of the SIRT inhibitors | effect on NAD-dependent axonal protection (NDAP) ([1]; neurons cultured in 1 mM NAD, Sirtinol 100 μM, 3AB 20 mM or siRNA lentivirus, 12 to 72 hr after transection): effectively blocked NDAP
Oc1ccc(C=Cc2cc(O)cc(O)c2)cc1 [resveratrol] |  | axonal degradation after axotomy ([1]; 10~100 μM, treated prior to axotomy): decrease in axonal degradation that was comparable to that obtained using NAD; phosphorylation of AMPK and ACC (AMPK; E13.5 DRG sensory neurons, 10 μM): stimulated phosphorylation of AMPK and ACC
O=C1CCc2c(ccc3ccccc23)O1 [splitomycin] | none of the SIRT inhibitors | 
